Source: patent US10570184B2, “GLP-1/glucagon receptor co-agonists for medical use” (Novo Nordisk A/S, priority 2014, dated 2020)
Starred links: 1 amine or outer side, 2 acyl side, 3 side chain; linkers in the order of their positions; H or OH if unused. Non-standard residues stand in square brackets, D forms with d. Residues, ends and D or L forms follow the SMILES beside them. Groups on a side chain read outwards from the residue. *: point of attachment. C18 diacid = O=C(O)CCCCCCCCCCCCCCCCC(=O)*; γGlu = O=C(O)[C@H](CCC(=O)[*:2])N[*:1]; AEEA = NCCOCCOCC(=O)O; Aib = CC(C)(N)C(=O)O

Key:
[1] = Assay (III) ThT fibrillation assay for physical stability; type: physicochemical; conditions: 250 μM in 10 mM HEPES buffer, 37° C., shaking 960 rpm
Source text: The purpose of this assay is to assess the physical stability of the glucagon derivatives of the invention in aqueous solutions. Low physical stability of a peptide may lead to amyloid fibril formation, which is observed as well-ordered, thread-like macromolecular structures in the sample, which eventually may lead to gel formation. This has traditionally been measured by visual inspection of the sample. However, that kind of measurement is very subjective and depending on the observer. Therefore, the application of a small molecule indicator probe is much more advantageous. Thioflavin T (ThT) is such a probe and has a distinct fluorescence signature when binding to fibrils [Naiki et al. (1989) Anal. Biochem. 177, 244-249; LeVine (1999) Methods. Enzymol. 309, 274-284]. […] The constant t0 is the time needed to reach 50% of maximum fluorescence. The two important parameters describing fibril formation are the lag-time calculated by t0−2τ and the apparent rate constant kapp 1/τ. Samples were prepared freshly before each assay. Each sample composition is described in the legends. The pH of the sample was adjusted to the desired value using appropriate amounts of concentrated NaOH and HCl. Thioflavin T was added to the samples from a stock solution in H2O to a final concentration of 1 μM. Sample aliquots of 200 μl (250 μM of the glucagon derivative in 10 mM HEPES buffer, pH 7.5) were placed in a 96 well microtiter plate (Packard OptiPlate™-96, white polystyrene). Usually, four or eight replica of each sample (corresponding to one test condition) were placed in one column of wells. The plate was sealed with Scotch Pad (Qiagen). Incubation at given temperature, shaking and measurement of the ThT fluorescence emission were done in a Fluoroskan Ascent FL fluorescence platereader (Thermo Labsystems). The temperature was adjusted to 37° C. The plate was incubated with orbital shaking adjusted to 960 rpm with an amplitude of 1 mm. Fluorescence measurement was done using excitation through a 444 nm filter and measurement of emission through a 485 nm filter. Each run was initiated by incubating the plate at the assay temperature for 10 min. The plate was measured every 20 minutes for a desired period of time. Between each measurement, the plate was shaken and heated as described. After completion of the ThT assay the four or eight replica of each sample was pooled and centrifuged at 20000 rpm for 30 minutes at 18° C. The supernatant was filtered through a 0.22 μm filter and an aliquot was transferred to a HPLC vial. The concentration of peptide in the initial sample and in the filtered supernatant was determined by reverse phase HPLC using an appropriate standard as reference. The percentage fraction the concentration of the filtered sample constituted of the initial sample concentration was reported as the recovery. The measurement points were saved in Microsoft Excel format for further processing and curve drawing and fitting was performed using GraphPad Prism. The background emission from ThT in the absence of fibrils was negligible. The data points are typically a mean of four or eight samples and shown with standard deviation error bars. Only data obtained in the same experiment (i.e. samples on the same plate) are presented in the same graph ensuring a relative measure of fibrillation between experiments. The data set may be fitted to Eq. (1).

human GLP-1 receptor = target: T1, human GLP-1 receptor (Homo sapiens, UniProt P43220); test: Assay (II)(a) GLP-1 receptor binding, 125I-GLP-1 displacement SPA on BHK membranes; conditions: without presence of serum albumin; read-out: GLP-1R IC50 (nM) [Assay (II)(a)]
T1 construct: expressed in transfected cells; host or cells: membranes of BHK cells (parent BHKTS13), clone FCW467-12A
T1 sequence (P43220 24-463): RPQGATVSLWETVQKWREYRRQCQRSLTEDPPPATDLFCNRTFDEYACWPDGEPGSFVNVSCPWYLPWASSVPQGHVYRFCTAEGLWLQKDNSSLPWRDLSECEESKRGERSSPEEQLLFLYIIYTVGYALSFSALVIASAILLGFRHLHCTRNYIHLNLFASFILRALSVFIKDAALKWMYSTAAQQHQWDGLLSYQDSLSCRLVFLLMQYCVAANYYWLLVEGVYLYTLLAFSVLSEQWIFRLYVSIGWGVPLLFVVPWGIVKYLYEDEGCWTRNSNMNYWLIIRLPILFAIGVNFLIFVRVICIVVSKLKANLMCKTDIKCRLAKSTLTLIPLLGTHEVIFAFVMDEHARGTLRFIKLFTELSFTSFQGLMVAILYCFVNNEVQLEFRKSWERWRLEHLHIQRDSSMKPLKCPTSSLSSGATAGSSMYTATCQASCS
In short: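 Membranes from BHK cells (clone FCW467-12A) stably expressing human GLP-1R were incubated with serially diluted compounds (8×10EE-13 to 8×10EE-7 M before addition) and [125I]-GLP-1-(7-36)NH2 with WGA SPA beads, 2 h at 30° C, pH 7.4. IC50 taken from displacement by non-linear regression. Run at ≤0.001% or 2.0% final serum albumin.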

ThT Assay Lag time (h) [Assay (III), pH 7.5] [1] | IC50 (human GLP-1 receptor) | SMILES
45.0 h | 0.3 nM | CC[C@H](C)[C@H](NC(=O)[C@H](CC(C)C)NC(=O)[C@H](Cc1c[nH]c2ccccc12)NC(=O)[C@H](CCC(N)=O)NC(=O)[C@@H](NC(=O)[C@H](Cc1ccccc1)NC(=O)[C@H](CC(=O)O)NC(=O)[C@H](CCCNC(=N)N)NC(=O)[C@H](C)NC(=O)[C@H](CCCNC(=N)N)NC(=O)[C@H](CCCNC(=N)N)NC(=O)[C@H](CC(C)C)NC(=O)[C@H](CC(=O)O)NC(=O)[C@H](CC(C)C)NC(=O)[C@H](Cc1ccc(O)cc1)NC(=O)[C@H](CCCCN)NC(=O)[C@H](CO)NC(=O)[C@H](CC(C)C)NC(=O)[C@H](CC(=O)O)NC(=O)[C@H](CO)NC(=O)[C@@H](NC(=O)[C@H](Cc1ccccc1)NC(=O)[C@@H](NC(=O)CNC(=O)[C@H](CCC(N)=O)NC(=O)C(C)(C)NC(=O)[C@@H](N)Cc1c[nH]cn1)[C@@H](C)O)[C@@H](C)O)C(C)C)C(=O)N[C@@H](CC(N)=O)C(=O)N[C@@H](CCCCNC(=O)CC[C@H](NC(=O)CC[C@H](NC(=O)COCCOCCNC(=O)COCCOCCNC(=O)CC[C@H](NC(=O)CCCCCCCCCCCCCCCCC(=O)O)C(=O)O)C(=O)O)C(=O)O)C(N)=O [Chem. 23, N^ε29-[(4S)-4-carboxy-4-[[(4S)-4-carboxy-4-[[2-[2-[2-[[2-[2-[2-[[(4S)-4-carboxy-4-(17-carboxyheptadecanoylamino)butanoyl]amino]ethoxy]ethoxy]acetyl]amino]ethoxy]ethoxy]acetyl]amino]butanoyl]amino]butanoyl]-[Aib2,Leu10,Leu16,Arg20,Ile27,Lys29]-Glucagon amide] (H-H[Aib]QGTFTSDLSKYLDLRRARDFVQWLINK([γGlu-γGlu-AEEA-AEEA-γGlu-C18 diacid])-NH2; N-terminus assumed)
45.0 h | 0.9 nM | CC[C@H](C)[C@H](NC(=O)[C@H](CC(C)C)NC(=O)[C@H](Cc1c[nH]c2ccccc12)NC(=O)[C@H](CCC(N)=O)NC(=O)[C@@H](NC(=O)[C@H](Cc1ccccc1)NC(=O)[C@H](CCC(=O)O)NC(=O)[C@H](CCCNC(=N)N)NC(=O)[C@H](C)NC(=O)[C@H](CCCNC(=N)N)NC(=O)[C@H](CCCNC(=N)N)NC(=O)[C@H](CC(C)C)NC(=O)[C@H](CC(=O)O)NC(=O)[C@H](CC(C)C)NC(=O)[C@H](Cc1ccc(O)cc1)NC(=O)[C@H](CCCCN)NC(=O)[C@H](CO)NC(=O)[C@H](CC(C)C)NC(=O)[C@H](CC(=O)O)NC(=O)[C@H](CO)NC(=O)[C@@H](NC(=O)[C@H](Cc1ccccc1)NC(=O)[C@@H](NC(=O)CNC(=O)[C@H](CCC(N)=O)NC(=O)C(C)(C)NC(=O)[C@@H](N)Cc1c[nH]cn1)[C@@H](C)O)[C@@H](C)O)C(C)C)C(=O)N[C@@H](CO)C(=O)N[C@@H](CCCCNC(=O)CC[C@H](NC(=O)CC[C@H](NC(=O)COCCOCCNC(=O)COCCOCCNC(=O)CC[C@H](NC(=O)CCCCCCCCCCCCCCCCC(=O)O)C(=O)O)C(=O)O)C(=O)O)C(N)=O [Chem. 30, N^ε29-[(4S)-4-carboxy-4-[[(4S)-4-carboxy-4-[[2-[2-[2-[[2-[2-[2-[[(4S)-4-carboxy-4-(17-carboxyheptadecanoylamino)butanoyl]amino]ethoxy]ethoxy]acetyl]amino]ethoxy]ethoxy]acetyl]amino]butanoyl]amino]butanoyl]-[Aib2,Leu10,Leu16,Arg20,Glu21,Ile27,Ser28,Lys29]-Glucagon amide] (H-H[Aib]QGTFTSDLSKYLDLRRAREFVQWLISK([γGlu-γGlu-AEEA-AEEA-γGlu-C18 diacid])-NH2; N-terminus assumed)
45.0 h |  | CC[C@H](C)[C@H](NC(=O)[C@H](CC(C)C)NC(=O)[C@H](Cc1c[nH]c2ccccc12)NC(=O)[C@H](CCC(N)=O)NC(=O)[C@@H](NC(=O)[C@H](Cc1ccccc1)NC(=O)[C@H](CC(=O)O)NC(=O)[C@H](CCCNC(=N)N)NC(=O)[C@H](C)NC(=O)[C@H](CCCNC(=N)N)NC(=O)[C@H](CCCNC(=N)N)NC(=O)[C@H](CC(C)C)NC(=O)[C@H](CC(=O)O)NC(=O)[C@H](CC(C)C)NC(=O)[C@H](Cc1ccc(O)cc1)NC(=O)[C@H](CCCCN)NC(=O)[C@H](CO)NC(=O)[C@H](CC(C)C)NC(=O)[C@H](CC(=O)O)NC(=O)[C@H](CO)NC(=O)[C@@H](NC(=O)[C@H](Cc1ccccc1)NC(=O)[C@@H](NC(=O)CNC(=O)[C@H](CCC(N)=O)NC(=O)C(C)(C)NC(=O)[C@@H](N)Cc1c[nH]cn1)[C@@H](C)O)[C@@H](C)O)C(C)C)C(=O)N[C@@H](CO)C(=O)N[C@@H](CCCCNC(=O)CC[C@H](NC(=O)CC[C@H](NC(=O)COCCOCCNC(=O)COCCOCCNC(=O)CC[C@H](NC(=O)CCCCCCCCCCCCCCCCC(=O)O)C(=O)O)C(=O)O)C(=O)O)C(N)=O [Chem. 29, N^ε29-[(4S)-4-carboxy-4-[[(4S)-4-carboxy-4-[[2-[2-[2-[[2-[2-[2-[[(4S)-4-carboxy-4-(17-carboxyheptadecanoylamino)butanoyl]amino]ethoxy]ethoxy]acetyl]amino]ethoxy]ethoxy]acetyl]amino]butanoyl]amino]butanoyl]-[Aib2,Leu10,Leu16,Arg20,Ile27,Ser28,Lys29]-Glucagon amide] (H-H[Aib]QGTFTSDLSKYLDLRRARDFVQWLISK([γGlu-γGlu-AEEA-AEEA-γGlu-C18 diacid])-NH2; N-terminus assumed)
45.0 h |  | CC[C@H](C)[C@H](NC(=O)[C@H](CC(C)C)NC(=O)[C@H](Cc1c[nH]c2ccccc12)NC(=O)[C@H](C)NC(=O)[C@@H](NC(=O)[C@H](Cc1ccccc1)NC(=O)[C@H](CC(=O)O)NC(=O)[C@H](CCCNC(=N)N)NC(=O)[C@H](C)NC(=O)[C@H](CCCNC(=N)N)NC(=O)[C@H](CCCNC(=N)N)NC(=O)[C@H](CC(C)C)NC(=O)[C@H](CC(=O)O)NC(=O)[C@H](CC(C)C)NC(=O)[C@H](Cc1ccc(O)cc1)NC(=O)[C@H](CCCCN)NC(=O)[C@H](CO)NC(=O)[C@H](CC(C)C)NC(=O)[C@H](CC(=O)O)NC(=O)[C@H](CO)NC(=O)[C@@H](NC(=O)[C@H](Cc1ccccc1)NC(=O)[C@@H](NC(=O)CNC(=O)[C@H](CCC(N)=O)NC(=O)C(C)(C)NC(=O)[C@@H](N)Cc1c[nH]cn1)[C@@H](C)O)[C@@H](C)O)C(C)C)C(=O)N[C@@H](CO)C(=O)N[C@@H](CCCCNC(=O)CC[C@H](NC(=O)CC[C@H](NC(=O)COCCOCCNC(=O)COCCOCCNC(=O)CC[C@H](NC(=O)CCCCCCCCCCCCCCCCC(=O)O)C(=O)O)C(=O)O)C(=O)O)C(N)=O [Chem. 31, N^ε29-[(4S)-4-carboxy-4-[[(4S)-4-carboxy-4-[[2-[2-[2-[[2-[2-[2-[[(4S)-4-carboxy-4-(17-carboxyheptadecanoylamino)butanoyl]amino]ethoxy]ethoxy]acetyl]amino]ethoxy]ethoxy]acetyl]amino]butanoyl]amino]butanoyl]-[Aib2,Leu10,Leu16,Arg20,Ala24,Ile27,Ser28,Lys29]-Glucagon amide] (H-H[Aib]QGTFTSDLSKYLDLRRARDFVAWLISK([γGlu-γGlu-AEEA-AEEA-γGlu-C18 diacid])-NH2; N-terminus assumed)
